Data on two molecules can be found in patent publication US20250082656A1, “DOSAGE REGIMENS FOR TREATMENT OF DENGUE INFECTION” (Atea Pharmaceuticals, Inc., priority 2022, published 2025).

Data set [1] in a line: Cytotoxicity in MDCK cells. In kind it is cell-based. To be noted: dog, Table 2, MDCK. The procedure:
To assess the antiviral specificity of Compound 1 (AT-281), serial dilutions were incubated with various host cell lines infected with a panel of DNA and RNA viruses other than flaviviruses. The activity of Compound 1 (AT-281) was measured in infected cells using the neutral red assay to determine the effective concentration required to inhibit viral replication 50% (EC50) (described in Example 3) and the threshold concentration required to obtain a perceptible effect on 50% of the cells incubated without virus (CC50). Compound 1 (AT-281) had no activity against the DNA viruses tested and was only weakly or not active against several RNA viruses (Table 2).

Another data set relates to DENV-2. The data set is described as follows: microbe, parasite or virus in culture. To be noted: Dengue virus, DENV2, Huh-7.
The subject of the next data set is West Nile (WNV). The data set is described as follows: Neutral red assay of virus-induced CPE, WNV. In kind it is cell-based. As to conditions: Kern 515, WNo2, Huh-7, neutral red assay.
In data set [2] the test system is flaviviruses. As to the kind of experiment: organism not typed. As to conditions: 144 h, read-out: concentration to achieve 50% inhibition (EC50) of the virus-induced cytopathic effect (CPE), range over 11 strains of 7 flaviviruses in 3 cell types, 3- to 6-day incubation. Background: Damage to the host cells serves as the signal in cytopathic effect assays.
Data set [3] deals with DENV-4. The data set is described as follows: Antiviral assay with FC read-out, DENV-4. In kind it is cell-based. As to conditions: Dengue virus, DENV4; DENV-4 TVP-360, Huh-7, FC read-out.
In data set [4] the test system is DENV-4. As to the kind of experiment: microbe, parasite or virus in culture. As to conditions: Dengue virus, DENV4, Huh-7.
The next data set concerns Usutu. As to the kind of experiment: microbe, parasite or virus in culture. In kind it is cell-based. As to conditions: TC-508, Huh-7, VYR assay.
Another data set relates to Dengue-3 (DENV-3). The data set is described as follows: Neutral red assay of virus-induced CPE, DENV-3. It is filed as cell-based. To be noted: DENV3, Huh-7.
Data set [5] deals with Respiratory syncytial virus. As to the kind of experiment: Antiviral specificity panel, RSV. In kind it is cell-based. To be noted: human respiratory syncytial virus, HEp-2; RNA virus, HEp2.
The subject of data set [6] is flaviviruses.
In another data set the target is DENV4 MTase domain (Dengue virus type 4, UniProt P09866). The data set is described as follows: Thermal shift assay, DENV4 MTase domain. As to conditions: read-out: ΔTM.
The next data set deals with DENV2 NS5 (Dengue virus type 2, UniProt P14340). The data set is described as follows: Nucleotide analogue incorporation / discrimination assay, DENV2 NS5. In kind it is biochemical. As for the experimental part:
(§1) The chain-terminating efficiency of Compound 5 was measured in competitive nucleotide incorporation assays using all four DENV serotypes. […] In comparison, sofosbuvir triphosphate is incorporated into the RNA less than 1 time for every 100 UTP (native uridine triphosphate) incorporations.
The experimental procedure is provided in Example 10.
(§2) Measurements and quantitations were as in FIG. 19B.
DENV NS5 was preincubated with the annealed P10/T20 RNA in an assembly buffer containing 20 mM HEPES pH 7.5, 10% glycerol, 5 mM MgCl2 and 5 mM DTT for 10 min at 30° C. to create an active RNA elongation complex. Reactions were started by adding AT-9010 with either all four NTPs, or UTP, ATP and CTP only. […] Reactions were quenched at indicated timepoints in 2× volume FBD stop solution (formamide, 10 mM EDTA) and analysed on 20% acrylamide:bisacrylamide (19:1), […] sequencing gels. RNA products were visualized using a Typhoon FluorImager and analyzed using ImageQuant software.
(§3) DENV NS5 was pre-incubated with the annealed P10/T20 RNA in an assembly buffer containing 20 mM HEPES pH 7.5, 10% glycerol, 5 mM MgCl2, and 5 mM DTT for 10 min at 30° C. to create an active RNA elongation complex.
(§4) Reactions were started by adding AT-9010 with either all four NTPs or UTP, ATP, and CTP only.
(§5) Single nucleotide incorporation was tested as follows. Reactions were started by adding the corresponding NTP or analogue. Final concentrations were 1 μM NS5, 0.25 μM P10/T20, 100 μM NTP or analogue in a final buffer containing 20 mM HEPES pH 7.5, 15% glycerol, 5 mM MgCl2, and 5 mM DTT.
(§6) Reactions were quenched at the designated time points in 3× volume FBD stop solution (formamide, 10 mM EDTA) and analyzed on 20% acrylamide-bisacrylamide (19:1) […] sequencing gels. RNA products were visualized using a Typhoon FluorImager then analyzed and quantified using ImageQuant software.

For a further data set, the target named is DENV4 NS5 (Dengue virus type 4, UniProt P09866). As to the kind of experiment: Nucleotide analogue incorporation / discrimination assay, DENV4 NS5. In kind it is biochemical. As to conditions: GTP for AT-9010 and AT-9002, UTP for SOF-TP. The procedure: as §1
The nature of regular inserted Watson-Crick nucleotides is indicated in the right of the gel. […] Quantification of band-products greater in size than the G/AT (+5) band relative to the G/AT (+5) band were measured using a Typhoon FluorImager, and allowed to calculate the discrimination value. The incorporation rates for […] and AT9002 are compared to that of GTP, and to that of UTP in the case of SOF-TP.
as §2, §3, §4, §5, §6

A further data set addresses DENV3 MTase domain (Dengue virus type 3, UniProt Q6YMS4). The data set is described as follows: Thermal shift assay, DENV3 MTase domain. To be noted: read-out: ΔTM.
The next data set has as its system DENV4 RdRp domain. As to the kind of experiment: Thermal shift assay, DENV4 RdRp domain. To be noted: RdRp domain DENV4, 100 μM compound.

Some results are limits rather than exact numbers.

DENV3 MTase domain, sequence (Q6YMS4 2492-2753): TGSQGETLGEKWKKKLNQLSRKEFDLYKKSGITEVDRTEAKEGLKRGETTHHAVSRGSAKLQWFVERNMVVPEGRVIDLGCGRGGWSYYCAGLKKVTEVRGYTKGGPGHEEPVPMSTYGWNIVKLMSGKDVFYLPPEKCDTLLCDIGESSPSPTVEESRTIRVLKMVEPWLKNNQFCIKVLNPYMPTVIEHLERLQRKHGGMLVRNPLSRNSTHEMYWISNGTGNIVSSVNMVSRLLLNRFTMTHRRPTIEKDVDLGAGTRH
DENV4 NS5, sequence (P09866 2488-3387): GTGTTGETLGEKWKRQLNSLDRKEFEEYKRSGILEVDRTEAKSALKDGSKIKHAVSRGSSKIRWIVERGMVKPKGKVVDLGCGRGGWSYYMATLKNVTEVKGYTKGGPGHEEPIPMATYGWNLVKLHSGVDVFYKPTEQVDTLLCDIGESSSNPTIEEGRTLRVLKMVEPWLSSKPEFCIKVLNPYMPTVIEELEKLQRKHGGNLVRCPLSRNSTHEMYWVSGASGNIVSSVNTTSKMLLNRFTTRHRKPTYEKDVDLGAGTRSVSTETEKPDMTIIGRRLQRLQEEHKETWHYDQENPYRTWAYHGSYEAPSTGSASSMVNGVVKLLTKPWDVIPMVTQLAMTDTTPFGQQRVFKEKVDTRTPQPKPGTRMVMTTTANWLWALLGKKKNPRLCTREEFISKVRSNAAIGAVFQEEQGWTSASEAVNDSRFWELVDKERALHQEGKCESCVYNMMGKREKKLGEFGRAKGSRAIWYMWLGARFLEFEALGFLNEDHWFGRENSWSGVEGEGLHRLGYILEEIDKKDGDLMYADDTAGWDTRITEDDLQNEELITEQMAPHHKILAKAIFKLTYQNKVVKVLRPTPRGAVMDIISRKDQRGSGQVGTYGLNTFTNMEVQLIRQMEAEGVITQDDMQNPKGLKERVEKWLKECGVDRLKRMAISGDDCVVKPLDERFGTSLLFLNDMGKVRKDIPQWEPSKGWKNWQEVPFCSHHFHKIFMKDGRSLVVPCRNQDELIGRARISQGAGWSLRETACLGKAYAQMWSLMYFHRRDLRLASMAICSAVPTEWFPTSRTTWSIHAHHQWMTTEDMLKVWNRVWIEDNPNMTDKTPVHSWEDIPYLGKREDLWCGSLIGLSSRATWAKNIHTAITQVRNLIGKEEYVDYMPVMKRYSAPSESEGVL
DENV4 MTase domain, sequence (P09866 2489-2751): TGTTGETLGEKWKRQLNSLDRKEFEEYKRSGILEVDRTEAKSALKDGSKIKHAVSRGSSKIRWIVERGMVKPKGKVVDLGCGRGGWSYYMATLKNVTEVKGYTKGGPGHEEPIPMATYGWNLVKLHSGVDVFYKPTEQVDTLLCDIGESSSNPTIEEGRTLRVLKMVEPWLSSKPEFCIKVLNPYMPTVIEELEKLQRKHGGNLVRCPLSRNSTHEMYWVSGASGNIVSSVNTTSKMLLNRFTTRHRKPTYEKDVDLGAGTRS

Consider `CNc1nc(N)nc2c1ncn2[C@@H]1O[C@H](CO[P@](=O)(N[C@@H](C)C(=O)OC(C)C)Oc2ccccc2)[C@@H](O)[C@@]1(C)F` [Compound 1, isopropyl ((R)-(((2R,3R,4R,5R)-5-(2-amino-6-(methylamino)-9H-purin-9-yl)-4-fluoro-3-hydroxy-4-methyltetrahydrofuran-2-yl)methoxy)(phenoxy)phosphoryl)-L-alaninate], for which the CC50 in [1] is greater than 100 µM; in the data set on flaviviruses [6] (read-out: CC50 (concentration required to kill 50% of cells exposed to drug only), exceeded the highest concentration tested), 85 to 170 µM. Further, the EC50 in the data set on DENV-2 was 300 nM; with West Nile (WNV), 1410 nM; in the data set on flaviviruses [2], 190 to 1410 nM; in the data set with DENV-4 [3] it was 1190 nM; in the data set on DENV-4 [4], 570 nM; with Dengue-3 (DENV-3) it was 770 nM. The molecule further registered an EC50 in data set [5] greater than 100 µM. This molecule registered an EC90 in the data set with Usutu of 720 nM. Also, in the data set on flaviviruses [6] (DENV-2 NGC Huh-7, DENV2 clinical isolate PBMC and BHK-21, DENV-3 H87 Huh-7, in each case), the SI was greater than 210.

On to `C[C@@]1(F)[C@H](O)[C@@H](COP(=O)(O)OP(=O)(O)OP(=O)(O)O)O[C@H]1n1cnc2c(=O)[nH]c(N)nc21` [Compound 5], for which the ΔTm at 100 µM is 2.9 ± 0.1 °C on DENV4 MTase domain and 3.5 ± 0.1 °C on DENV3 MTase domain. Besides, the “Preference (discrimination) native nucleotide > analogue” value at DENV2 NS5 (DENV2, GTP for AT-9010 and AT-9002, UTP for SOF-TP) stood at 9.3 ± 0.1; at DENV4 NS5 it was 11.2 ± 0.7. For the same molecule, the “discrimination factor (preference for GTP>Compound 5)” value on DENV2 NS5 (DENV-2 NS5, all four NTPs, band product intensities) is listed as 12.6±4.3. In addition, the “effect on RNA synthesis after incorporation” value on DENV2 NS5 (absence of GTP, next correct nucleotide (UTP) present) is recorded as “immediate chain-termination of RNA synthesis”. Besides, the ΔTM in the data set with DENV4 RdRp domain was found to be 4.1 ± 0.1 °C.

A word on the EC90: it is the point of the concentration-response curve where the effect stands at 90%. High values mean weaker potency, low ones greater potency. One may read the ΔTm as the shift of the melting midpoint relative to a reference.
